Laboratory results taken from the NIST ThermoML archive (doi:10.1021/acs.jced.7b00106).

Settings: Hot wire method

FC(F)(F)/C=C/Cl [(E)-1-chloro-3,3,3-trifluoroprop-1-ene]
Settings	thermal conductivity [W/m/K]
342.12 K, 65469 kPa, Liquid	0.09982
342.13 K, 113 kPa, Gas	0.01416
342.15 K, 367 kPa, Gas	0.01454
342.2 K, 116 kPa, Gas	0.01425
342.2 K, 377 kPa, Gas	0.01421
342.21 K, 43755 kPa, Liquid	0.09113
342.24 K, 251 kPa, Gas	0.01415
342.24 K, 34289 kPa, Liquid	0.08779
342.26 K, 113 kPa, Gas	0.01361
342.29 K, 7805 kPa, Liquid	0.07547
342.3 K, 262 kPa, Gas	0.01427
342.32 K, 4001 kPa, Liquid	0.07309
342.32 K, 26065 kPa, Liquid	0.08477
342.33 K, 176 kPa, Gas	0.01391
342.34 K, 464 kPa, Gas	0.0141
342.34 K, 19039 kPa, Liquid	0.08156
342.35 K, 118 kPa, Gas	0.01366
342.37 K, 497 kPa, Liquid	0.07069
342.4 K, 364 kPa, Gas	0.01446
342.43 K, 179 kPa, Gas	0.01433
342.43 K, 7788 kPa, Liquid	0.07522
342.45 K, 465 kPa, Gas	0.01403
342.47 K, 113 kPa, Gas	0.01424
342.47 K, 12801 kPa, Liquid	0.07827
342.48 K, 4008 kPa, Liquid	0.07289
342.49 K, 19031 kPa, Liquid	0.08119
342.51 K, 249 kPa, Gas	0.01404
342.52 K, 491 kPa, Liquid	0.07043
342.54 K, 114 kPa, Gas	0.0136
342.55 K, 117 kPa, Gas	0.01427
342.55 K, 375 kPa, Gas	0.01415
342.57 K, 65460 kPa, Liquid	0.1005
342.59 K, 175 kPa, Gas	0.01391
342.6 K, 53948 kPa, Liquid	0.09634
342.61 K, 12792 kPa, Liquid	0.07793
342.64 K, 119 kPa, Gas	0.01361
342.66 K, 260 kPa, Gas	0.01427
342.67 K, 362 kPa, Gas	0.01441
342.68 K, 43762 kPa, Liquid	0.09267
342.7 K, 464 kPa, Gas	0.01406
342.72 K, 65463 kPa, Liquid	0.09997
342.73 K, 34274 kPa, Liquid	0.08854
342.75 K, 53929 kPa, Liquid	0.09616
342.8 K, 178 kPa, Gas	0.01445
342.8 K, 247 kPa, Gas	0.01402
342.8 K, 465 kPa, Gas	0.01412
342.8 K, 7784 kPa, Liquid	0.07528
342.84 K, 43753 kPa, Liquid	0.09232
342.85 K, 113 kPa, Gas	0.01425
342.85 K, 114 kPa, Gas	0.01353
342.86 K, 4005 kPa, Liquid	0.07287
342.89 K, 173 kPa, Gas	0.01384
342.9 K, 34279 kPa, Liquid	0.08837
342.91 K, 372 kPa, Gas	0.01419
342.92 K, 488 kPa, Liquid	0.07046
342.93 K, 359 kPa, Gas	0.01446
342.94 K, 116 kPa, Gas	0.01437
342.95 K, 121 kPa, Gas	0.01352
343.03 K, 258 kPa, Gas	0.01427
343.07 K, 464 kPa, Gas	0.01408
343.08 K, 246 kPa, Gas	0.01404
343.12 K, 496 kPa, Liquid	0.06933
343.14 K, 26056 kPa, Liquid	0.08389
343.17 K, 65460 kPa, Liquid	0.09977
343.19 K, 19024 kPa, Liquid	0.08036
343.2 K, 178 kPa, Gas	0.01442
343.22 K, 357 kPa, Gas	0.01443
343.23 K, 53929 kPa, Liquid	0.09614
343.27 K, 113 kPa, Gas	0.01431
343.3 K, 370 kPa, Gas	0.01421
343.34 K, 43755 kPa, Liquid	0.09204
343.35 K, 117 kPa, Gas	0.01424
343.35 K, 12789 kPa, Liquid	0.07705
